Tests used:
corn [1] = experiment: Test A postemergence; type: in vivo, Zea mays
Source text: (§1) Seeds of plant species selected from barnyardgrass (Echinochloa crus-galli), kochia (Kochia scoparia), ragweed (common ragweed, Ambrosia elatior), Italian ryegrass (Lolium multiflorum), large (Lg) crabgrass (Digitaria sanguinalis), giant foxtail (Setaria faberii), morningglory (Ipomoea spp.), pigweed (Amaranthus retroflexus), velvetleaf (Abutilon theophrasti), wheat (Triticum aestivum), and corn (Zea mays) were planted into a blend of loam soil and sand and treated preemergence with a directed soil spray using test chemicals formulated in a non-phytotoxic solvent mixture which included a surfactant.
(§2) At the same time, plants selected from these crop and weed species and also blackgrass (Alopecurus myosuroides), and galium (catchweed bedstraw, Galium aparine) were planted in pots containing the same blend of loam soil and sand and treated with postemergence applications of test chemicals formulated in the same manner. Plants ranged in height from 2 to 10 cm and were in the one- to two-leaf stage for the postemergence treatment. Treated plants and untreated controls were maintained in a greenhouse for approximately 10 days, after which time all treated plants were compared to untreated controls and visually evaluated for injury. Plant response ratings, summarized in Table A, are based on a 0 to 100 scale where 0 is no effect and 100 is complete control. A dash (-) response means no test result.

wheat [2] = experiment: Test A preemergence; type: in vivo, Triticum aestivum; conditions: for Wheat plant response rating: 0 to 100 scale, 0 no effect, 100 complete control, approx. 10 days; for Plant response rating, Wheat: 125 g ai/ha, 0 to 100 scale where 0 is no effect and 100 is complete control
Source text: as §1, §2

barnyardgrass [3] = experiment: Test A postemergence; type: in vivo, Echinochloa crus-galli
Source text: as §1, §2

wheat [4] = experiment: Test A postemergence; type: in vivo, Triticum aestivum
Source text: as §1, §2

giant foxtail [5] = experiment: Test A preemergence; type: in vivo, Setaria faberii; conditions: for Foxtail, Giant plant response rating: 0 to 100 scale, 0 no effect, 100 complete control, approx. 10 days; for Plant response rating, Foxtail, Giant: 125 g ai/ha, 0 to 100 scale where 0 is no effect and 100 is complete control
Source text: as §1, §2

pigweed [6] = experiment: Test A postemergence; type: in vivo, Amaranthus retroflexus
Source text: as §1, §2

morningglory [7] = experiment: Test A postemergence; type: in vivo, Ipomoea spp.
Source text: as §1, §2

large (Lg) crabgrass [8] = experiment: Test A preemergence; type: in vivo, Digitaria sanguinalis; conditions: for Crabgrass, Large plant response rating: 500 g ai/ha, approx. 10 days
Source text: as §1, §2

velvetleaf [9] = experiment: Test A preemergence; type: in vivo, Abutilon theophrasti; conditions: for Velvetleaf plant response rating: 0 to 100 scale, 0 no effect, 100 complete control, approx. 10 days; for Plant response rating, Velvetleaf: 125 g ai/ha, 0 to 100 scale where 0 is no effect and 100 is complete control
Source text: as §1, §2

pigweed [10] = experiment: Test A preemergence; type: in vivo, Amaranthus retroflexus; conditions: for Pigweed plant response rating: 0 to 100 scale, 0 no effect, 100 complete control, approx. 10 days; for Plant response rating, Pigweed: 125 g ai/ha, 0 to 100 scale where 0 is no effect and 100 is complete control
Source text: as §1, §2

barnyardgrass [11] = experiment: Test A preemergence; type: in vivo, Echinochloa crus-galli; conditions: for Barnyardgrass plant response rating: 500 g ai/ha, approx. 10 days
Source text: as §1, §2

giant foxtail [12] = experiment: Test A postemergence; type: in vivo, Setaria faberii
Source text: as §1, §2

morningglory [13] = experiment: Test A preemergence; type: in vivo, Ipomoea spp.; conditions: for Morningglory plant response rating: 0 to 100 scale, 0 no effect, 100 complete control, approx. 10 days
Source text: as §1, §2

corn [14] = experiment: Test A preemergence; type: in vivo, Zea mays; conditions: for Corn plant response rating: 500 g ai/ha, approx. 10 days
Source text: as §1, §2

large (Lg) crabgrass [15] = experiment: Test A postemergence; type: in vivo, Digitaria sanguinalis
Source text: as §1, §2

velvetleaf [16] = experiment: Test A postemergence; type: in vivo, Abutilon theophrasti
Source text: as §1, §2

sedge, umbrella = experiment: Test B flooded paddy test; type: in vivo, Cyperus difformis; conditions: Flood, 250 g ai/ha; 0 to 100 scale where 0 is no effect and 100 is complete control
Protocol: (§3) Plant species in the flooded paddy test selected from rice (Oryza sativa), sedge, umbrella (small-flower umbrella sedge, Cyperus difformis), (Heteranthera limosa), and barnyardgrass (Echinochloa crus-galli) were grown to the 2-leaf stage for testing. At time of treatment, test pots were flooded to 3 cm above the soil surface, treated by application of test compounds directly to the paddy water, and then maintained at that water depth for the duration of the test. Treated plants and controls were maintained in a greenhouse for 13 to 15 days, after which time all species were compared to controls and visually evaluated. Plant response ratings, summarized in Table B, are based on a scale of 0 to 100 where 0 is no effect and 100 is complete control. A dash (-) response means no test result.

barnyardgrass [17] = experiment: Test B flooded paddy test; type: in vivo, Echinochloa crus-galli; conditions: Flood, 250 g ai/ha; 0 to 100 scale where 0 is no effect and 100 is complete control
Protocol: as §3

Heteranthera limosa = experiment: Test B flooded paddy test; type: in vivo; conditions: Flood, 250 g ai/ha; 0 to 100 scale where 0 is no effect and 100 is complete control
Protocol: as §3

rice = experiment: Test B flooded paddy test; type: in vivo, Oryza sativa; conditions: Flood, 250 g ai/ha; 0 to 100 scale where 0 is no effect and 100 is complete control
Protocol: as §3

[18] = 1000 g ai/ha, 0 to 100 scale, 0 no effect, 100 complete control
[19] = 125 g ai/ha, 0 to 100 scale where 0 is no effect and 100 is complete control
[20] = 500 g ai/ha, 0 to 100 scale, 0 no effect, 100 complete control
[21] = 0 to 100 scale, 0 no effect, 100 complete control

| SMILES | Plant response rating, Corn (corn [1]; [19]) | Plant response rating, Corn (corn [1]; [20]) | Plant response rating, Wheat (wheat [2]) | Wheat plant response rating (wheat [2]; 500 g ai/ha) | Plant response rating, Barnyardgrass (barnyardgrass [3]; [19]) | Plant response rating, Barnyardgrass (barnyardgrass [3]; [20]) | Plant response rating, Wheat (wheat [4]; [19]) | Plant response rating, Wheat (wheat [4]; [20]) | Plant response rating, Foxtail, Giant (giant foxtail [5]) | Foxtail, Giant plant response rating (giant foxtail [5]; 500 g ai/ha) | Plant response rating, Pigweed (pigweed [6]; [19]) | Plant response rating, Pigweed (pigweed [6]; [20]) | Plant response rating, Crabgrass, Large (large (Lg) crabgrass [8]; [19]) | Crabgrass, Large plant response rating (large (Lg) crabgrass [8]; [21]) | Plant response rating, Velvetleaf (velvetleaf [9]) | Velvetleaf plant response rating (velvetleaf [9]; 500 g ai/ha) | Plant response rating, Pigweed (pigweed [10]) | Pigweed plant response rating (pigweed [10]; 500 g ai/ha) | Plant response rating, Barnyardgrass (barnyardgrass [11]; [19]) | Barnyardgrass plant response rating (barnyardgrass [11]; [21]) | other results |
| --- | --- | --- | --- | --- | --- | --- | --- | --- | --- | --- | --- | --- | --- | --- | --- | --- | --- | --- | --- | --- | --- |
| Fc1cnc(Oc2ccccc2-n2cccn2)nc1 [Compound 14] | – | – | – | – | – | – | – | – | – | – | – | – | – | – | – | – | – | – | – | – | Plant response rating, Corn (corn [1]; [18]): 20; Wheat plant response rating (wheat [2]; 1000 g ai/ha): 20; Plant response rating, Barnyardgrass (barnyardgrass [3]; [18]): 20; Plant response rating, Wheat (wheat [4]; [18]): 20; Foxtail, Giant plant response rating (giant foxtail [5]; 1000 g ai/ha): 90; Plant response rating, Pigweed (pigweed [6]; [18]): 100; Plant response rating, Morningglory (morningglory [7]; [18]): 70; Plant response rating, Crabgrass, Large (large (Lg) crabgrass [8]; [18]): 90; Velvetleaf plant response rating (velvetleaf [9]; 1000 g ai/ha): 90; Pigweed plant response rating (pigweed [10]; 1000 g ai/ha): 100; Plant response rating, Barnyardgrass (barnyardgrass [11]; [18]): 30; Plant response rating, Foxtail, Giant (giant foxtail [12]; [18]): 40; Morningglory plant response rating (morningglory [13]; 1000 g ai/ha): 20; Plant response rating, Corn (corn [14]; [18]): 0; Plant response rating, Crabgrass, Large (large (Lg) crabgrass [15]; [18]): 30; Plant response rating, Velvetleaf (velvetleaf [16]; [18]): 90 |
| N#Cc1cnn(-c2ccccc2Oc2ncc(Cl)cn2)c1 [Compound 33] | 0 | 100 | 0 | 0 | 0 | 100 | 0 | 90 | 90 | 100 | 100 | 100 | 90 | 100 | 50 | 100 | 100 | 100 | 0 | 70 | Plant response rating, Sedge, Umbrella (sedge, umbrella): 20; Plant response rating, Barnyardgrass (barnyardgrass [17]): 10; Plant response rating, Ducksalad (Heteranthera limosa): 80; Plant response rating, Foxtail, Giant (giant foxtail [12]; [19]): 70; Plant response rating, Foxtail, Giant (giant foxtail [12]; [20]): 100; Plant response rating, Rice (rice): 0; Plant response rating, Corn (corn [14]; [19]): 0; Corn plant response rating (corn [14]; [21]): 0; Plant response rating, Crabgrass, Large (large (Lg) crabgrass [15]; [19]): 20; Plant response rating, Crabgrass, Large (large (Lg) crabgrass [15]; [20]): 80; Plant response rating, Velvetleaf (velvetleaf [16]; [19]): 100; Plant response rating, Velvetleaf (velvetleaf [16]; [20]): 100 |
| COc1cccc(-n2cc(Br)cn2)c1Oc1ncc(Cl)cn1 [Compound 41] | 0 | 20 | 0 | 0 | 10 | 50 | 0 | 0 | 10 | 80 | 50 | 80 | 30 | 70 | 60 | 70 | 70 | 100 | 10 | 50 | Plant response rating, Morningglory (morningglory [7]; [19]): 20; Plant response rating, Morningglory (morningglory [7]; [20]): 30; Plant response rating, Foxtail, Giant (giant foxtail [12]; [19]): 20; Plant response rating, Foxtail, Giant (giant foxtail [12]; [20]): 80; Plant response rating, Morningglory (morningglory [13]; [19]): 0; Morningglory plant response rating (morningglory [13]; 500 g ai/ha): 0; Plant response rating, Corn (corn [14]; [19]): 0; Corn plant response rating (corn [14]; [21]): 0; Plant response rating, Crabgrass, Large (large (Lg) crabgrass [15]; [19]): 20; Plant response rating, Crabgrass, Large (large (Lg) crabgrass [15]; [20]): 70; Plant response rating, Velvetleaf (velvetleaf [16]; [19]): 70; Plant response rating, Velvetleaf (velvetleaf [16]; [20]): 100 |

Source: patent US9695155B2, “Herbicidal substituted pyrimidinyloxy benzene compounds” (E. I. DU PONT DE NEMOURS AND COMPANY, priority 2013, dated 2017)
